Reference: ChEMBL document CHEMBL1139676, “Anti-atherosclerotic and anti-inflammatory activities of catecholic xanthones and flavonoids isolated from Cudrania tricuspidata” (Bioorg Med Chem Lett, 2006)
pIC50: −log10 of the molar value. Active and inactive are the calls of the source. No cut-off for these calls is given here.

Tested on: RAW
Experiment: Inhibition of LPS-induced iNOS protein expression in mouse RAW 264.7 cells at 20 uM
Assay type: functional, cell-based
Settings: not given

**Q.** For `CC(C)=CCc1c(-c2ccc(O)cc2O)oc2cc3c(c(O)c2c1=O)C=CC(C)(C)O3` [CUDRAFLAVONE B], which Activity is on record?
**A.** Active

**Q.** `CC(C)=CCc1cc([C@@H]2CC(=O)c3c(cc(O)c(CC=C(C)C)c3O)O2)c(O)cc1O` was tested. Which Activity did it give?
**A.** Active

**Q.** With `CC(C)(O)CCc1c(O)cc(O)c2c1O[C@H](c1cc3c(cc1O)OC(C)(C)C=C3)CC2=O` as the compound, how does the Activity read?
**A.** Active

Tested on: RAW
Experiment: Inhibition of LPS-induced iNOS protein expression in mouse RAW 264.7 cells at 10 uM
Assay type: functional, cell-based
Settings: not given

**Q.** Which Activity does the source give for `CC(C)=CCc1c(-c2ccc(O)cc2O)oc2cc3c(c(O)c2c1=O)C=CC(C)(C)O3` [CUDRAFLAVONE B] here?
**A.** Active

**Q.** `CC(C)=CCc1cc([C@@H]2CC(=O)c3c(cc(O)c(CC=C(C)C)c3O)O2)c(O)cc1O` was tested. Which Activity did it give?
**A.** Active

**Q.** For `CC(C)(O)CCc1c(O)cc(O)c2c1O[C@H](c1cc3c(cc1O)OC(C)(C)C=C3)CC2=O`, which Activity is on record?
**A.** Active

Tested on: RAW
Experiment: Inhibition of LPS-induced iNOS protein expression in mouse RAW 264.7 cells at 50 uM
Assay type: functional, cell-based
Settings: not given

**Q.** Which Activity does the source give for `CC(C)=CCc1c(-c2ccc(O)cc2O)oc2cc3c(c(O)c2c1=O)C=CC(C)(C)O3` [CUDRAFLAVONE B] here?
**A.** Active

**Q.** How did the Activity turn out when `CC(C)=CCc1cc([C@@H]2CC(=O)c3c(cc(O)c(CC=C(C)C)c3O)O2)c(O)cc1O` was run?
**A.** Active

**Q.** How did the Activity turn out when `CC(C)(O)CCc1c(O)cc(O)c2c1O[C@H](c1cc3c(cc1O)OC(C)(C)C=C3)CC2=O` was run?
**A.** Active

Tested on: RAW
Experiment: Inhibition of LPS-induced NO production in mouse RAW 264.7 cells after 18 hrs
Assay type: functional, cell-based
Settings: not given

**Q.** Which Activity does the source give for `CC(C)=CCc1c(-c2ccc(O)cc2O)oc2cc3c(c(O)c2c1=O)C=CC(C)(C)O3` [CUDRAFLAVONE B] here?
**A.** Dose-dependent effect

**Q.** `CC(C)=CCc1cc([C@@H]2CC(=O)c3c(cc(O)c(CC=C(C)C)c3O)O2)c(O)cc1O` was tested. Which Activity did it give?
**A.** Active

**Q.** For `CC(C)(O)CCc1c(O)cc(O)c2c1O[C@H](c1cc3c(cc1O)OC(C)(C)C=C3)CC2=O`, which Activity is on record?
**A.** Active

Tested on: RAW
Experiment: Inhibition of LPS-induced iNOS protein expression in mouse RAW 264.7 cells at 5 uM
Assay type: functional, cell-based
Settings: not given

**Q.** How did the Activity turn out when `CC(C)=CCc1c(-c2ccc(O)cc2O)oc2cc3c(c(O)c2c1=O)C=CC(C)(C)O3` [CUDRAFLAVONE B] was run?
**A.** Active

**Q.** For `CC(C)=CCc1cc([C@@H]2CC(=O)c3c(cc(O)c(CC=C(C)C)c3O)O2)c(O)cc1O`, which Activity is on record?
**A.** Active

**Q.** For `CC(C)(O)CCc1c(O)cc(O)c2c1O[C@H](c1cc3c(cc1O)OC(C)(C)C=C3)CC2=O`, which Activity is on record?
**A.** Active

Tested on: RAW
Experiment: Effect on cell viability in mouse RAW 264.7 cells at 80 uM by MTT method
Assay type: functional, cell-based
Settings: not given

**Q.** With `CC(C)=CCc1c(-c2ccc(O)cc2O)oc2cc3c(c(O)c2c1=O)C=CC(C)(C)O3` [CUDRAFLAVONE B] as the compound, how does the Activity read?
**A.** inactive

**Q.** How did the Activity turn out when `CC(C)=CCc1cc([C@@H]2CC(=O)c3c(cc(O)c(CC=C(C)C)c3O)O2)c(O)cc1O` was run?
**A.** inactive

Tested on: RAW
Experiment: Inhibition of LPS-induced NO production in mouse RAW 264.7 cells at 50 uM after 18 hrs
Assay type: functional, cell-based
Settings: not given

**Q.** For `CC(C)=CCc1cc([C@@H]2CC(=O)c3c(cc(O)c(CC=C(C)C)c3O)O2)c(O)cc1O`, which Activity is on record?
**A.** Active

**Q.** How did the Activity turn out when `CC(C)(O)CCc1c(O)cc(O)c2c1O[C@H](c1cc3c(cc1O)OC(C)(C)C=C3)CC2=O` was run?
**A.** Active

Target: T1, Sterol O-acyltransferase 2 (Homo sapiens, UniProt O75908)
T1 sequence (O75908 whole entry): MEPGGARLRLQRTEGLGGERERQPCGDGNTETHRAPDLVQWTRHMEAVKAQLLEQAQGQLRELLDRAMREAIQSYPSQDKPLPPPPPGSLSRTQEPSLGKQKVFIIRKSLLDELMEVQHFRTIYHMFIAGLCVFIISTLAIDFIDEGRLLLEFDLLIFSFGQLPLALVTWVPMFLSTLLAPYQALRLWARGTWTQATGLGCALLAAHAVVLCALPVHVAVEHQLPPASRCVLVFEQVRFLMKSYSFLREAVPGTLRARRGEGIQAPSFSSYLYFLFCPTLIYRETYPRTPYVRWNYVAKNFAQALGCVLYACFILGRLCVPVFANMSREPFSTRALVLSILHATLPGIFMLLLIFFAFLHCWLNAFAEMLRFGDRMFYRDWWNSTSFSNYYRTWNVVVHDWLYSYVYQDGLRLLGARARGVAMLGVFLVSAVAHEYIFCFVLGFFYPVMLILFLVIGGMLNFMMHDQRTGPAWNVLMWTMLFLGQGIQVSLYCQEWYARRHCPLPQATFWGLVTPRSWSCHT
Experiment: Inhibition of human ACAT2 expressed in Hi5 cells
Parameters: species or system BTI-TN-5B1-4
Settings: not given

**Q.** With `CC(C)=CCc1c(-c2ccc(O)cc2O)oc2cc3c(c(O)c2c1=O)C=CC(C)(C)O3` [CUDRAFLAVONE B] as the compound, how does the pIC50 read?
**A.** 4.38

**Q.** How did the pIC50 turn out when `C=CC(C)(C)c1c(OC)cc(O)c2c(=O)c3ccc(O)c(O)c3oc12` [ISOCUDRANIAXANTHONE B] was run?
**A.** 3.88

**Q.** `C=CC(C)(C)c1c(O)cc(O)c2c(=O)c3c(CC=C(C)C)c(OC)c(O)cc3oc12` [CUDRAXANTHONE C] was tested. Which pIC50 did it give?
**A.** 4.72

**Q.** How did the pIC50 turn out when `C=CC(C)(C)c1c(O)c(CC=C(C)C)c2oc3cc(O)c(O)cc3c(=O)c2c1O` [MACLURAXANTHONE B] was run?
**A.** 3.95

**Q.** How did the pIC50 turn out when `CC(C)=CCc1cc([C@@H]2CC(=O)c3c(cc(O)c(CC=C(C)C)c3O)O2)c(O)cc1O` was run?
**A.** 4.05

**Q.** How did the pIC50 turn out when `C=CC(C)(C)c1c(O)cc2oc3c(CC=C(C)C)c(O)c(O)cc3c(=O)c2c1O` [CUDRAXANTHONE L] was run?
**A.** 4.13

**Q.** With `C=CC(C)(C)c1c(OC)cc(O)c2c(=O)c3c(CC=C(C)C)c(O)c(O)cc3oc12` [CUDRAXANTHONE D] as the compound, how does the pIC50 read?
**A.** 4.12

**Q.** With `CC1(C)C=Cc2c(cc3oc(-c4ccc(O)cc4O)cc(=O)c3c2O)O1` as the compound, how does the pIC50 read?
**A.** 4.11

**Q.** `CC(C)=CCc1c(O)cc2c(c1O)C(=O)C[C@@H](c1cc3c(cc1O)OC(C)(C)C=C3)O2` [CUDRAFLAVANONE A] was tested. Which pIC50 did it give?
**A.** 4.61

**Q.** `C=CC(C)(C)c1c(O)cc(O)c2c(=O)c3cc(O)c4c(c3oc12)C=CC(C)(C)O4` was tested. Which pIC50 did it give?
**A.** 4.54

**Q.** How did the pIC50 turn out when `CC(C)(O)CCc1c(O)cc(O)c2c1O[C@H](c1cc3c(cc1O)OC(C)(C)C=C3)CC2=O` was run?
**A.** 4.35

**Q.** How did the pIC50 turn out when `CC(C)=CCc1c(O)c(O)cc2c(=O)c3c(O)c4c(cc3oc12)OC(C)C4(C)C` (configuration not stated) [CUDRAXANTHONE M] was run?
**A.** 4.63

Tested on: RAW
Experiment: Effect on cell viability in mouse RAW 264.7 cells at 50 uM by MTT method
Assay type: functional, cell-based
Settings: not given

**Q.** Which Activity does the source give for `CC(C)(O)CCc1c(O)cc(O)c2c1O[C@H](c1cc3c(cc1O)OC(C)(C)C=C3)CC2=O` here?
**A.** inactive

Tested on: Plasma
Experiment: Antioxidant activity against human plasma LDL oxidation by TBARS assay
Assay type: functional, cell-free
Settings: not given

**Q.** How did the Activity turn out when `C=CC(C)(C)c1c(O)cc(O)c2c(=O)c3c(CC=C(C)C)c(OC)c(O)cc3oc12` [CUDRAXANTHONE C] was run?
**A.** inactive

Target: T2, Sterol O-acyltransferase 1 (Homo sapiens) (UniProt P35610)
T2 sequence (whole entry): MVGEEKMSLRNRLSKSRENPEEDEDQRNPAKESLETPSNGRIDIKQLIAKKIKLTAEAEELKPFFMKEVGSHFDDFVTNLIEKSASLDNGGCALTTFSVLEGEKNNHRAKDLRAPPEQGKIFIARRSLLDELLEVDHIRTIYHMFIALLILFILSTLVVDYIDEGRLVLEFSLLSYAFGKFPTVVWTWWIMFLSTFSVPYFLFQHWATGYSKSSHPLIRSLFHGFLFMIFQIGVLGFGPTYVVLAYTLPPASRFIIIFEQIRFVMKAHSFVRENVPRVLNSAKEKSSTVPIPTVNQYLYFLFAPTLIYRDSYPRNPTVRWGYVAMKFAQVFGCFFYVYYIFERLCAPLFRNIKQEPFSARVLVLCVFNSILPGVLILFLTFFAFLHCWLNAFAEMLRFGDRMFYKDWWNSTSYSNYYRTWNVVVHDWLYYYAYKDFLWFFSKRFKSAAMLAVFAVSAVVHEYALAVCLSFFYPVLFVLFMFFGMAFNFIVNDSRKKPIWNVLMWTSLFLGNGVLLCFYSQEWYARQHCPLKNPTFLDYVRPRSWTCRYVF
Experiment: (§1) Inhibition of human ACAT1 expressed in Hi5 cells
Settings: BTI-TN-5B1-4

**Q.** With `CC(C)=CCc1c(-c2ccc(O)cc2O)oc2cc3c(c(O)c2c1=O)C=CC(C)(C)O3` [CUDRAFLAVONE B] as the compound, how does the Activity read?
**A.** inactive

**Q.** Which Activity does the source give for `CC(C)=CCc1cc([C@@H]2CC(=O)c3c(cc(O)c(CC=C(C)C)c3O)O2)c(O)cc1O` here?
**A.** inactive

**Q.** With `CC1(C)C=Cc2c(cc3oc(-c4ccc(O)cc4O)cc(=O)c3c2O)O1` as the compound, how does the Activity read?
**A.** inactive

Target: T3, Sterol O-acyltransferase 1 (Homo sapiens, UniProt P35610)
T3 sequence (P35610 whole entry): T2 sequence (whole entry)
Experiment: as §1
Parameters: species or system BTI-TN-5B1-4
Settings: not given

**Q.** With `C=CC(C)(C)c1c(O)cc(O)c2c(=O)c3cc(O)c4c(c3oc12)C=CC(C)(C)O4` as the compound, how does the pIC50 read?
**A.** 4.40
